# According to US20240398771A1, “TREATMENT OF SCLERODERMA AND RAYNAUD'S SYNDROME” (Aisa Pharma, Inc., priority 2023, published 2024):
# What was measured:
# participants with SSc-RP [1] = test: Pain score (11-point Likert scale) recorded during weekly RP attacks; assay type: in vivo, human; conditions: Tadalafil 5 mg (n = 4); Raynaud's pain, Table G
# Excerpt: (§1) The relevant metrics measured by this tool daily are: • Study medication • SSc-RP symptoms (Reporting an attack including duration of attack) • Severity of the attack considering all symptoms of the attack e.g. tingling, numbness, pain, color changes (VAS 0-10 cm scale) • Participant's location at the time of the attack (inside home/outside home) • Selecting symptoms experienced during the attack (tingling, numbness, pain, color changes, other) • Pain rating during the attack (11-point Likert scale) • The RCS based on how much difficulty participants had with Raynaud's today, how many attacks the participant had, and how long they lasted. Participants will also be asked to consider how much pain, numbness, or other symptoms the Raynaud's caused in fingers (including painful sores), and how much the Raynaud's alone affected the use of hands today (VAS 0-10 cm scale).
# The absolute change in highest pain score (11-point Likert scale) of weekly RP attacks from baseline to the end of each dosing period will be a secondary outcome variable. […] The variable will be calculated similar to frequency data as before.
# The absolute change in average pain score (11-point Likert scale) of weekly RP attacks from baseline to the end of each Dosing Period will be a secondary outcome variable. […] The variable will be calculated similar to frequency data as before.
# participants with SSc-RP [2] = test: Average duration of weekly RP attacks, all attacks (minutes); assay type: in vivo, human
# Excerpt: as §1
# The absolute change in average duration of weekly RP attacks from baseline to the end of each dosing period was and will be a secondary outcome variable. The sponsor-developed participant-informed diary was and will be used to record data. Average duration of weekly RP attacks is defined as the total duration of RP attacks divided by total number of RP attacks within the last 7 days of each dosing period. Total duration of RP attacks during the last 7 days of screening period divided by the total number of RP attacks will be used as baseline for the analysis of all periods. The variable will be calculated similar to frequency data as before.
# [3] = Excluding Outliers, ITT Population - Part A (Table B-6), last 7 days of dosing period
# [4] = Excluding Outliers, ITT Population - Part A (Table B-6), last 7 days of screening period
# [5] = ITT Population - Part A (Table B-5), last 7 days of dosing period
# [6] = ITT Population - Part A (Table B-5), last 7 days of screening period
smiles,measurement,setting,value
CN1CC(=O)N2[C@H](c3ccc4c(c3)OCO4)c3[nH]c4ccccc4c3C[C@@H]2C1=O [Tadalafil],Baseline Average Pain Score [Mean (SD)],participants with SSc-RP [1],5.47 (3.586)
same,"Average Duration of weekly RP attacks (All Attacks), Max",participants with SSc-RP [2]; [3],"5.9, 5.9 minutes"
same,"Average Duration of weekly RP attacks (All Attacks), Min",participants with SSc-RP [2]; [3],"5.9, 5.9 minutes"
same,"Average Duration of weekly RP attacks (All Attacks), Q1",participants with SSc-RP [2]; [3],"5.95, 5.95 minutes"
same,"Average duration of weekly RP attacks (All Attacks), Change from Baseline, Max",participants with SSc-RP [2]; [3],"−5.0, −5.0 minutes"
same,"Average duration of weekly RP attacks (All Attacks), Change from Baseline, Min",participants with SSc-RP [2]; [3],"−5.0, −5.0 minutes"
same,"Average duration of weekly RP attacks (All Attacks), Percent Change from Baseline, Max",participants with SSc-RP [2]; [3],"−45.6, −45.6%"
same,"Average duration of weekly RP attacks (All Attacks), Percent Change from Baseline, Min",participants with SSc-RP [2]; [3],"−45.6, −45.6%"
same,"Average duration of weekly RP attacks (All Attacks), Baseline, Max",participants with SSc-RP [2]; [4],"10.9, 10.9 minutes"
same,"Average duration of weekly RP attacks (All Attacks), Baseline, Min",participants with SSc-RP [2]; [4],"10.9, 10.9 minutes"
same,"Average duration of weekly RP attacks (All Attacks), Baseline, Q1",participants with SSc-RP [2]; [4],"10.92, 10.92 minutes"
same,"Average duration of weekly RP attacks (All Attacks), Baseline, Q3",participants with SSc-RP [2]; [4],"10.92, 10.92 minutes"
same,Average Duration of weekly RP attacks (All Attacks),participants with SSc-RP [2]; [5],5.9 min
same,"Average Duration of weekly RP attacks (All Attacks), Max",participants with SSc-RP [2]; [5],818.6 min
same,"Average Duration of weekly RP attacks (All Attacks), Q1",participants with SSc-RP [2]; [5],5.95 min
same,"Average Duration of weekly RP attacks (All Attacks), Q3",participants with SSc-RP [2]; [5],818.57 min
same,"Average duration of weekly RP attacks (All Attacks), Change from Baseline",participants with SSc-RP [2]; [5],-5.0 min
same,"Average duration of weekly RP attacks (All Attacks), Change from Baseline, Max",participants with SSc-RP [2]; [5],188.6 min
same,"Average duration of weekly RP attacks (All Attacks), Change from Baseline, Mean",participants with SSc-RP [2]; [5],91.80 min
same,"Average duration of weekly RP attacks (All Attacks), Change from Baseline, Median",participants with SSc-RP [2]; [5],91.80 min
same,"Average duration of weekly RP attacks (All Attacks), Change from Baseline, Q3",participants with SSc-RP [2]; [5],188.57 min
same,"Average duration of weekly RP attacks (All Attacks), Percent Change from Baseline, Max",participants with SSc-RP [2]; [5],29.9%
same,"Average duration of weekly RP attacks (All Attacks), Percent Change from Baseline, Mean",participants with SSc-RP [2]; [5],−7.81%
same,"Average duration of weekly RP attacks (All Attacks), Percent Change from Baseline, Median",participants with SSc-RP [2]; [5],−7.81%
same,"Average duration of weekly RP attacks (All Attacks), Percent Change from Baseline, Min",participants with SSc-RP [2]; [5],−45.6%
same,"Average duration of weekly RP attacks (All Attacks), Percent Change from Baseline, Q3",participants with SSc-RP [2]; [5],29.93%
same,"Average duration of weekly RP attacks (All Attacks), Baseline",participants with SSc-RP [2]; [6],10.9 min
same,"Average duration of weekly RP attacks (All Attacks), Baseline, Max",participants with SSc-RP [2]; [6],630.0 min
same,"Average duration of weekly RP attacks (All Attacks), Baseline, Q1",participants with SSc-RP [2]; [6],10.92 min
same,"Average duration of weekly RP attacks (All Attacks), Baseline, Q3",participants with SSc-RP [2]; [6],630.00 min
